Like-named read-outs stand apart in the source and are kept apart here. One block for each compound: values may come before it.
How the values were obtained:
[1] = target: T1, vitamin D3 nuclear receptors (VD3R) (Rattus norvegicus, UniProt P13053); test: Osteocalcin VDRE reporter gene transcription assay in transfected ROS-17/2.8 cells
T1 sequence (P13053 1-423): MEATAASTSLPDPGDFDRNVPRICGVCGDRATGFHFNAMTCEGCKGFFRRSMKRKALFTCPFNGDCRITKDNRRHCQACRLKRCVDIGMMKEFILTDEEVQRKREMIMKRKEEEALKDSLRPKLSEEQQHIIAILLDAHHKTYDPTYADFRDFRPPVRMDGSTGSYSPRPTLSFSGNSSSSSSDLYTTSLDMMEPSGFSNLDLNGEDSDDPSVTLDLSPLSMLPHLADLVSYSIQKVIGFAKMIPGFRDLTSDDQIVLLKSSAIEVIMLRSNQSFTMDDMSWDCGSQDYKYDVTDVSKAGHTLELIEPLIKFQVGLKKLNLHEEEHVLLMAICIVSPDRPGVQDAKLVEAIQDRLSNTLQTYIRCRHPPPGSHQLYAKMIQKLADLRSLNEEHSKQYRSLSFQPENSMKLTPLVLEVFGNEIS

[2] = test system: rat osteosarcoma cell line UMR 106
Experimental: (§1) In order to address whether vitamin D3 analogs can be converted to 3-epi forms, a number of analogs were tested in bone cells under identical experimental conditions as described in Example IX.

keratinocytes [3] = test: Keratinocyte growth inhibition (cell number per well); type: cell-based, human; details: for inhibition of keratinocyte growth: result in words; for potency at inhibiting growth of keratinocytes compared with 1α,25(OH)2-3-epi-D3: data not shown
Experimental: To address the effect of 3-epi vitamin D3 compounds on keratinocyte growth, keratinocyte cultures were established at 25.000 cells/per well on day 0 in KGM. […] The cells were allowed to grow for 4 more days with one refeeding on day 3. Number of cells per well was determined on day 4.

[4] = test system: intestinal calcium transport; details: relative to 1α,25(OH)2D3 = 100; cited from earlier work
human keratinocytes = test: Metabolism in human keratinocytes (incubation, lipid extraction, HPLC); type: in vitro ADME
Experimental: Keratinocytes were prepared as described previously (Kim H. […] First passage keratinocytes were seeded at 0.5×10^6 into […] flasks in keratinocytes growth media (KGM, Clonetics, Inc.). The cells were fed every 2-3 days. The cells were 70-80% confluent usually after 5 days. […] At the end of 24 hr incubation period in a 37° C., 5% CO2 incubator, an equal volume of methanol was added to the cultures. The cells were then scraped from the flasks and all of the media and the cells were pooled and lipid extraction was performed from both cells and media using the Bligh and Dyer technique. […] Zorbax-SIL column eluted with 6% isopropanol in hexane at a flow rate of 2 ml/min. […] Resulting lipid extracts were analyzed using the following HPLC conditions: Zorbax-SIL column eluted with 9% isopropanol in hexane at a flow rate of 2 ml/min. […] Lipid extracts of different time points were analyzed by straight phase HPLC. […] This metabolite peak appeared at 1 hr. incubation period and increased to its maximum by 3 hr.

[5] = target: T2, plasma vitamin D binding protein (DBP) (Homo sapiens, UniProt P02774); details: relative competitive index; RCI of 1α,25(OH)2D3 is by definition 100; cited from earlier work
T2 sequence (P02774 17-474): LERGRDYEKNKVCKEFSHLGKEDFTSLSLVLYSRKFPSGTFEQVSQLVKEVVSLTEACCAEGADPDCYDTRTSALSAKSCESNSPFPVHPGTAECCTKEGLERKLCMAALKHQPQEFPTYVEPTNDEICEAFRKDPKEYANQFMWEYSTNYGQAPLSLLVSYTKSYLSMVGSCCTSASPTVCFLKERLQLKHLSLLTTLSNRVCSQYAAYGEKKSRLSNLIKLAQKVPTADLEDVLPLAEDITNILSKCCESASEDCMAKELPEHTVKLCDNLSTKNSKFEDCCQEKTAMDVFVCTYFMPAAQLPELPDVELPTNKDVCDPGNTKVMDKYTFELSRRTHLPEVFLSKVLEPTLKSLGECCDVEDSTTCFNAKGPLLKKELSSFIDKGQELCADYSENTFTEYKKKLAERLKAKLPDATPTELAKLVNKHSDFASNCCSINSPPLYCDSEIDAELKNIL

[6] = test system: intestinal calcium mobilization; details: cited from earlier work
[7] = test system: bone calcium mobilization; details: relative to 1α,25(OH)2D3 = 100; cited from earlier work
MG-63 = details: relative to 1α,25(OH)2D3 = 100; cited from earlier work
[8] = target: T2, plasma vitamin D binding protein (DBP); test: Competitive ligand binding to plasma vitamin D binding protein (RCI); details: fold over 1α,25(OH)2D3
Source text: The elevated levels of 3-epi binding indicate that 3-epi forms bind to DBP more avidly than their isomeric counterparts. Such enhanced binding may in turn enhance the stability of 3-epi forms in the plasma, and thus may explain the prolonged presence of 3-epi metabolites in vivo.
Ligand binding assays are well known in the art. […] Such plots give linear curves characteristic for each test analog, the slopes of which are equal to the analog's competitive index (Wecksler, W. R. and Norman, A. W. (1980) Methods of Enzymol. 67:494-500).

bovine parathyroid cells [9] = test: Inhibition of PTH secretion in bovine parathyroid cells; type: cell-based; details: result in words
Experimental: To determine the effect of 3-epi vitamin D3 compounds on parathyroid hormone secretion, bovine parathyroid cells were prepared as described in the metabolism studies. These cells were grown for four days in serum-free media. […] Steady state PTH seretion was determined by washing the cells 3 times with Dulbecco's PBS and then placing them in serum free media for 3 hours. The media was collected, centrifuged at 4° C. and analyzed from PTH using CH9 antibody as described previously (Brown A. J. et al. (1992) Endocrinology 130:276-281). The cell monolayers were dissolved in 0.1 N NaOH and assayed for protein by method of Bradford using a kit from Biorad Laboratories. PTH secretion is expressed as picograms PTH per milligram cell protein (FIG. 20, panel B).

Caco-2 cells = test: Metabolism of synthetic analogs in Caco-2 cells (HPLC); type: in vitro ADME, human; details: for metabolites detected in subconfluent cells: Caco-2, 6 days after seeding; for metabolites detected in subconfluent cells / metabolites detected in confluent cells: 1 μM, 48 hours; for metabolites detected in confluent cells: Caco-2, 14 days after seeding
Experimental: To address whether the epimerization of vitamin D3 analogs occurs in other tissues, the intestinal cell line Caco-2 was used as a model system to investigate the metabolism of two synthetic analogs of 1,25(OH)2D3 in intestinal epithelial cells. Subconfluent (6 days after seeding) and confluent (14 days after seeding) cells were incubated with 1 μM 1,25(OH)2-16-ene-D3 or 1,25(OH)2-16-ene-23-yne-D3, respectively, for 48 hours.

keratinocytes [10] = details: J. Invest. Dermatol. 101:713-718, 1993; cited from earlier work
HACAT cells = test: Metabolism of 1α,25(OH)2D3 in immortalized human keratinocytes (HACAT); type: in vitro ADME; details: 24 hr, 1uM 1α,25(OH)2D3
Source text: Primary cultures of human keratinocytes were used as a control (FIG. 12, panel A). The other three tissues tested included a cell line of immortalized human keratinocytes ([…] commonly studied cancer cell line (human promyelocytic leukemic cell line, HL-60) (FIG. 12, panel C), and perfused rat kidney (FIG. 12, Panel D). […] The experiments certainly establish the fact that the 3-epimerization is not ubiquitous, like the side chain oxidation pathways.

[11] = test system: rat osteosarcoma cell line UMR 106; test: Metabolism in rat osteosarcoma cell line UMR 106 (HPLC); details: UMR 106, 1α,25(OH)2D3, 24 and 48 hours
Experimental: as §1

human placental explants = details: 1 uM 1α,25(OH)2D3
[12] = test system: human osteosarcoma cell (U-2 OS); test: Metabolism of 1α,25(OH)2D3 in human osteosarcoma cell (U-2 OS); type: in vitro ADME; details: 3×10^7 and 12×10^7 cells
Experimental: HPLC profiles were determined at two different cell densities, 3×10^7 cells and 12×10^7 as shown in the upper and lower panels of the Figure, respectively.

bovine parathyroid cells [13] = test: Metabolism in bovine parathyroid cells (HPLC); type: in vitro ADME; details: 1 uM, 24 hours
Experimental: Bovine parathyroid glands obtained from a local slaughterhouse were digested with collagenase and the cells were cultured as previously described (Brown A. J. et al. (1992) Endocrinology 130:276-281), and seeded at a density of 80,000 cells/cm^2. Cells were grown to confluence in six days in serum free medium. […]. Incubations were terminated with methanol, and the samples were sent to our laboratory for HPLC analysis. The lipid extract was analyzed using the straight phase HPLC system (Zorbax-SIL column eluted with 6% isopropanol inhexane at 2 ml/min flow rate). […]

human leukemic cells = test: Proliferation and differentiation of human leukemic cells; type: cell-based; details: data not shown

SMILES: C=C1C(=CC=C2CCCC3(C)C(C(C)CC#CC(C)(C)O)=CCC23)CC(O)CC1O (stereo not drawn) [3-epi-1,25-dihydroxy-16-ene-25-yne-cholecalciferol]
transcriptional activation in relation to isomeric counterpart [1]: slightly decreased
transcriptional activity compared with 1α,25(OH)2D3 [1]: as active as 1α,25(OH)2D3
induction of VD3R transcriptional activity ([1]; osteocalcin VDRE reporter): dose dependent manner

SMILES: C=C1C(=CC=C2CCCC3(C)C2CCC3C(C)CCCC(C)(C)O)CC(O)CC1O (stereo not drawn) [1α,25(OH)2-20-epi-D3]
conversion of vitamin D3 analog into less polar 3-epi metabolite [2]: 3-epi form

SMILES: C=C1C(=CC=C2CCCC3(C)C2CCC3C(C)CCCC(C)(C)O)CC(O)CC1O (stereo not drawn) [1α,25(OH)2-3-epi-D3, 3-epi-1α,25-dihydroxycholecalciferol]
inhibition of keratinocyte growth (keratinocytes [3]): significant biological activity
Intestinal Calcium Transport [4]: 2.8
incubation time at which the tritiated metabolite reaches its maximum (human keratinocytes): 3 h
metabolism into more polar metabolites (human keratinocytes): extensive metabolism
Binding to DBP (RCI) [5]: 800
Transcaltachia ([6]; relative to 1α,25(OH)2D3): 80%
Transcaltachia ([6]; relative to 1α,25(OH)2D3 = 100): 80
Bone Calcium Mobilization [7]: 1.5
Osteocalcin Synthesis MG-63 (MG-63): 17
increase in the binding to plasma vitamin D binding protein (DBP) compared to 1α,25(OH)2D3 [8]: eightfold
inhibition of PTH secretion (bovine parathyroid cells [9]): significant biological activity

SMILES: C=C1/C(=C\C=C2/CCC[C@]3(C)C([C@H](C)CCC(=O)C(C)(C)O)=CC[C@@H]23)C[C@@H](O)C[C@@H]1O [1α,25(OH)2-16-ene-24-oxo-D3]
potency at inhibiting growth of keratinocytes compared with 1α,25(OH)2-3-epi-D3 (keratinocytes [3]): more potent than 1α,25(OH)2-3-epi-D3
inhibition of keratinocyte growth (keratinocytes [3]): equally potent
modulating proliferating and differentiation of human leukemic cells, compared with parent compound (human leukemic cells): equipotent effect as its parent compound
accumulation of metabolite relative to remaining unmetabolized substrate (human keratinocytes; human): exceeded the amounts of remaining unmetabolized substrate

Further lines, with some results ahead:

conversion of vitamin D3 analog into less polar 3-epi metabolite [2]: 3-epi form
SMILES: C=C1/C(=C\C=C2/CCC[C@]3(C)C([C@@H](C)CCCC(C)(C)O)=CCC23)C[C@@H](O)C[C@@H]1O (stereo partly drawn) [1α,25(OH)2-16-ene-20-epi-D3]

metabolites detected in confluent cells (Caco-2 cells): 3-epi form of 1,25(OH)2-16-ene-D3
SMILES: C=C1/C(=C\C=C2/CCC[C@]3(C)C([C@H](C)CCCC(C)(C)O)=CCC23)C[C@@H](O)C[C@@H]1O (stereo partly drawn) [1α,25(OH)2-16-ene-D3]
potency at inhibiting growth of keratinocytes compared with 1α,25(OH)2-3-epi-D3 (keratinocytes [3]): more potent than 1α,25(OH)2-3-epi-D3
inhibition of keratinocyte growth (keratinocytes [3]): equally potent
metabolites detected in subconfluent cells (Caco-2 cells): 1,24,25(OH)3-16-ene-D3 and 1,25 (OH)2-24-oxo-16-ene-D3
inhibiting proliferation and inducing differentiation of keratinocytes (keratinocytes [10]): most potent of the analogs tested

formation of 1α,25(OH)2-3-epi-D3 [11]: dose dependent
incubation time at which the tritiated metabolite reaches its maximum (human keratinocytes; human keratinocytes from adult breast skin incubated with tritiated 25(OH)D3, physiological substrate concentration): 1 to 2 h
epimerization of the 3-hydroxy group (human placental explants): unable to epimerize
conversion into 1α,25(OH)2-3-epi-D3 (bovine parathyroid cells [13]): have the ability to convert
SMILES: C=C1/C(=C\C=C2/CCC[C@@]3(C)C2CCC3C(C)CCCC(C)(C)O)CC(O)C[C@@H]1O (stereo partly drawn) [1α,25(OH)2D3]
Intestinal Calcium Transport [4]: 100
formation of 1α,25(OH)2-3-epi-D3 (peak M) (HACAT cells): is formed in keratinocytes and the HACAT cells
formation of 1α,25(OH)2-3-epi-D3 (peak M) (human keratinocytes; primary human keratinocytes, 24 hr, 1uM 1α,25(OH)2D3): is formed in keratinocytes and the HACAT cells
Transcaltachia ([6]; relative to 1α,25(OH)2D3 = 100): 100
Bone Calcium Mobilization [7]: 100
conversion into 3-epi form [12]: directly proportional to the concentration of cells
Osteocalcin Synthesis MG-63 (MG-63): 100

metabolites detected in subconfluent cells (Caco-2 cells): no metabolites could be detected
metabolites detected in confluent cells (Caco-2 cells): 3-epi forms
rate of metabolism compared with 1,25(OH)2D3 or 1,25(OH)2-16-ene-D3 (Caco-2 cells; Caco-2, all growth conditions, data not shown): metabolized considerably slower
conversion of vitamin D3 analog into less polar 3-epi metabolite [2]: 3-epi forms
SMILES: C=C1/C(=C\C=C2/CCC[C@]3(C)C([C@H](C)CC#CC(C)(C)O)=CC[C@@H]23)C[C@@H](O)C[C@@H]1O [1α,25(OH)2-16-ene-23-yne-D3]

— patent US20010007907A1, “3-EPI COMPOUNDS OF VITAMIN D3 AND USES THEREOF” (WOMEN AND INFANTS HOSPITAL, priority 1997, published 2001)
